Values quoted from earlier work in patent US20060165788A1, “Lercanidipine pH dependent pulsatile release compositions” (priority 2004, published 2006).

What was measured:
Caco-2 cell = Caco-2 cell apparatus
[1] = not given; remark: listed apart in the source
[2] = for time to maximum concentration (Tmax): form (I) and form (II) compared with each other

In the case of COC(=O)C1=C(C)NC(C)=C(C(=O)OC(C)(C)CN(C)CCC(c2ccccc2)c2ccccc2)C1c1cccc([N+](=O)[O-])c1.Cl (stereo not drawn) [Lercanidipine, methyl 1,1,N-trimethyl-N-(3,3-diphenylpropyl)-2-aminoethyl 1,4-dihydro-2,6-dimethyl-4-(3-nitrophenyl)pyridine-3,5-dicarboxylate], the “permeability, Paap” value (Caco-2 cell) is given as 0.05 ×10⁻⁶ cm/s, the “solubility at pH 5” value is given as “less than 20 μg/ml” and the “increase of amount of lercanidipine absorbed with simultaneous intake of food” value ([1]; in vivo) is given as “between three and four times”. For the same compound, the “presystemic first pass elimination” value ([1]; in vivo) was “extensive” and the “peak plasma level Tmax” value ([1]; oral administration, immediate release form) was 1 to 3 h.

For COC(=O)C1=C(C)NC(C)=C(C(=O)OC(C)(C)CN(C)CCC(c2ccccc2)c2ccccc2)C1c1cccc([N+](=O)[O-])c1 (stereo not drawn) [form (I)], the “time to maximum concentration (Tmax)” value [2] is listed as “shorter time to maximum concentration”.

In the case of COC(=O)C1=C(C)NC(C)=C(C(=O)OC(C)(C)CN(C)CCC(c2ccccc2)c2ccccc2)C1c1cccc([N+](=O)[O-])c1 (stereo not drawn) [form (II)], the “time to maximum concentration (Tmax)” value [2] is given as “delayed time of maximum concentration”, the bioavailability ([2]; form (II) compared to Form (I)) is given as “higher bioavailability” and the “plasma concentration (AUCo-t)” value ([2]; form (II) compared to Form (I)) is given as “higher plasma concentration”.
